Measured values reported in publication PMC8910297, “Investigation of the Molecular Details of the Interactions of Selenoglycosides and Human Galectin-3” (International Journal of Molecular Sciences, 2022).
Read-outs that look alike come from different tables or passages of the source.

What was measured:
[1] = molecular target: T1, Human galectin-3 (hGal-3) (Homo sapiens, UniProt P17931); assay: biochemical
T1 construct: gene LGALS3

[2] = molecular target: T1, Human galectin-3 (hGal-3); assay: biochemical; remark: listed apart in the source

T1 sequence (P17931 108-250): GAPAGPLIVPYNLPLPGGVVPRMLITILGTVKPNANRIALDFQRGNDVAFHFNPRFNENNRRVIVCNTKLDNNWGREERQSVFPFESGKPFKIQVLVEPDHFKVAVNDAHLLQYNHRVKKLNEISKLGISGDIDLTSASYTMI

Compound | Kd [1] | Kd [2]
OC[C@H]1O[C@@H]([Se][Se][C@@H]2O[C@H](CO)[C@H](O)[C@H](O)[C@H]2O)[C@H](O)[C@@H](O)[C@H]1O [DSeDG, di(β-D-galactopyranosyl)diselenide] | 8.5 ± 2.5 mM | 
OC[C@H]1O[C@@H]([Se][C@@H]2O[C@H](CO)[C@H](O)[C@H](O)[C@H]2O)[C@H](O)[C@@H](O)[C@H]1O [SeDG, di(β-D-galactopyranosyl)selenide] |  | 0.0352 ± 0.0072 mM
